{
  "source": "patent US10351525B2",
  "about": "“Beta lactamase inhibitors” (Oxford University Innovation Limited, priority 2014, dated 2019)",
  "key": {"[1]": {"tested_on": "E. coli 25722 (wt)", "experiment": "Meropenem MIC with and without inhibitor", "assay_type": "cell-based", "conditions": "Escherichia coli, read-out: Meropenem MIC in the absence of inhibitor", "procedure": "(§1) Further studies were carried out to determine if ML302F/ML302 potentiates β-lactam antibiotic activity in clinically derived strains containing IMP-1, IMP-4, VIM-4 or NDM-1, which are the most commonly observed MBLs in clinical isolates. All strains producing MBLs were confirmed as resistant to meropenem at the Clinical and Laboratory Standards Institute (U.S.A.) defined breakpoint of 8 μg/mL for Enterobacteriace (see Table 2 below). The minimum inhibitory concentration (MIC) of meropenem against wildtype and MBL producing Escherichia coli and Klebsiella pneumoniae strains was determined with and without increasing concentrations of ML302 or ML302F. Clinical and Laboratory Standards Institute. 2012. Methods for dilution antimicrobial susceptibility tests for bacteria that grow aerobically; 9th ed. Approved standard M07-A9. CLSI, Wayne, Pa.; and Clinical and Laboratory Standards Institute. 2012. Performance standards for antimicrobial susceptibility testing; 22nd informational supplement M100-S22. CLSI, Wayne, Pa."}, "[2]": {"tested_on": "K. pneumoniae NCTC 5055 (wt)", "experiment": "Meropenem MIC with and without inhibitor", "assay_type": "cell-based", "conditions": "Klebsiella pneumoniae, NCTC5055, read-out: Meropenem MIC in the absence of inhibitor", "procedure": "as §1"}, "[3]": {"tested_on": "E. coli EC98", "experiment": "MEM/ML302F treatment assay in infected G. mellonella larvae", "assay_type": "in vivo", "conditions": "EC 98 infection; 96 hrs; MEM 0.6 mg/kg, ML302F 4.8 mg/kg, alone or combined (1:8)", "procedure": "(§2) The activity of MEM and ML302F alone and in combination were assessed using 16 G. mellonella larva as described by M. Hornsey and D. W. Wareham (Antimicrob. Agents Chemother., 2011, 55(7), 3534-3537). Larvae were inoculated with P. aeruginosa GR57, E. coli EC98 and K. pneumoniae KP120. In combination therapies, a fixed ratio (1:8) of MEM:ML302F containing 0.6 mg/Kg of MEM8 and 4.8 mg/Kg of ML302F was administered in 10 μL injections to infected larvae. PBS injections (10 μL) were used as both controls for no antimicrobial therapy and inoculation injury. Larvae were scored for survival over 96 hrs and kill curves analysed by the log-rank test for trend. Relative risk (RR) of survival between the different treatment arms was calculated using Fisher's exact test with, two-tailed P-values of <0.05 considered statistically significant."}, "[4]": {"tested_on": "P. aeruginosa GR57", "experiment": "MEM/ML302F treatment assay in infected G. mellonella larvae", "assay_type": "in vivo", "conditions": "PA GR57 infection; 96 hrs; MEM 0.6 mg/kg, ML302F 4.8 mg/kg, alone or combined (1:8)", "procedure": "as §2"}, "[5]": {"tested_on": "K. pneumoniae KP120", "experiment": "MEM/ML302F treatment assay in infected G. mellonella larvae", "assay_type": "in vivo", "conditions": "KP 120 infection; 96 hrs; MEM 0.6 mg/kg, ML302F 4.8 mg/kg, alone or combined (1:8)", "procedure": "as §2"}},
  "data": [
    {"smiles": "C[C@@H](O)[C@H]1C(=O)N2C(C(=O)O)=C(S[C@@H]3CN[C@H](C(=O)N(C)C)C3)[C@H](C)[C@H]12", "note": "[Meropenem, meropenem]", "values": [
      {"measurement": "MIC", "setting": "[1]", "value": "≤ 0.25", "unit": "µg/mL"},
      {"measurement": "MIC", "setting": "[2]", "value": "≤ 0.25", "unit": "µg/mL"},
      {"measurement": "% survival of infected larvae", "setting": "[3]", "value": 44, "unit": "%"},
      {"measurement": "% survival of infected larvae", "setting": "[4]", "value": 23, "unit": "%"},
      {"measurement": "% survival of infected larvae", "setting": "[5]", "value": 69, "unit": "%"}
    ]}
  ]
}
